Experimental data taken from PubChem BioAssay (NCI).
Where “and” joins values, the source holds several entries; their conditions need not be identical. Equal entries are not always repeated.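 Dose response: 5 concentrations. Exposure: 48 h. Format: 96-well plates. Endpoint: linear interpolation; highest concentration if not reached. GI50 is the concentration that inhibits growth by half. TGI is the concentration that stops growth completely.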

Legend:
Experiment in all cases: DTP human tumour cell line panel, 48 h
MCF7 breast = system: MCF7 breast
MALME-3M melanoma = system: MALME-3M melanoma
786-0 renal = system: 786-0 renal
KM12 colon = system: KM12 colon
A498 renal = system: A498 renal
BT-549 breast = system: BT-549 breast
NCI-H23 lung = system: NCI-H23 lung
SF-295 CNS = system: SF-295 CNS
HCT-15 colon = system: HCT-15 colon
UACC-62 melanoma = system: UACC-62 melanoma

SMILES | TGI (MCF7 breast) [µM] | TGI (MALME-3M melanoma) | TGI (786-0 renal) | TGI (KM12 colon) | TGI (A498 renal) | TGI (BT-549 breast) | TGI (NCI-H23 lung) | TGI (SF-295 CNS) | TGI (HCT-15 colon) | TGI (UACC-62 melanoma) | GI50 (MCF7 breast) [µM] | GI50 (MALME-3M melanoma) [µM] | GI50 (KM12 colon) [µM] | GI50 (A498 renal) [µM] | GI50 (NCI-H23 lung) [µM] | GI50 (SF-295 CNS) [µM] | GI50 (HCT-15 colon) [µM] | GI50 (UACC-62 melanoma) [µM]
O=c1[nH]nc(-c2ccc([N+](=O)[O-])cc2)[nH]1 | > 100 | > 100 µM | > 100 µM | > 100 µM | > 100 µM | > 100 µM | > 100 µM | > 100 µM | > 100 µM | > 100 µM |  |  |  |  |  |  |  | 
C=CCN(c1cc(OC)c2[nH]c(C(=O)O)c(C)c2c1[N+](=O)[O-])S(C)(=O)=O | > 100 | 52.3 µM | > 100 µM | > 100 µM | > 100 µM | > 100 µM | > 100 µM | > 100 µM | > 100 µM | > 100 µM |  |  |  |  |  |  |  | 
COc1cc2c3cc1Oc1cc(ccc1O)C[C@@H]1c4c(cc(OC)c(O)c4Oc4ccc(cc4)C[C@@H]3[N+](C)(C)CC2)CC[N+]1(C)C | > 100 | 74.4 µM | > 100 µM | > 100 µM | > 100 µM | > 100 µM | > 100 µM | 50.5 µM | > 100 µM | > 100 µM |  |  |  |  |  |  |  | 
Nc1cc2nc(-c3ccccc3)cn2cn1 | > 100 | 70 µM | > 100 µM | > 100 µM | 80.3 µM | > 100 µM | > 100 µM | > 100 µM | > 100 µM | > 100 µM |  |  |  |  |  |  |  | 
COC(=O)[C@@H]1[C@H]2CC[C@]3(C)[C@@H](OC(C)=O)CC[C@H]3[C@@H]2CC[C@H]1C1(C)SCCS1 | 83 | 38.9 µM | 62.5 µM | 74.2 µM | > 100 µM | 46.2 µM | 86.7 µM | 73.6 µM | > 100 µM | > 100 µM |  |  |  |  |  |  |  | 
O=c1cccc2n1CC1CNCC2C1 (stereo not drawn) | > 100 | > 100 µM | > 100 µM | > 100 µM | > 100 µM | > 100 µM | > 100 µM | > 100 µM | > 100 µM | > 100 µM |  |  |  |  |  |  |  | 
CCCCCc1cc(CCCC)sc1-c1ccco1 | > 100 | > 100 µM | > 100 µM | > 100 µM | > 100 µM | > 100 µM | > 100 µM | > 100 µM | > 100 µM | > 100 µM |  |  |  |  |  |  |  | 
CCOP(=O)(CC1OC(CO)C(O)C1O)OCC (stereo not drawn) | > 100 | > 100 µM | > 100 µM | > 100 µM | > 100 µM | > 100 µM | > 64.1 µM | > 100 µM | > 100 µM | > 100 µM |  |  |  |  |  |  |  | 
CC(Br)CN(CC(C)Br)c1ccc2c(c1)Cc1ccccc1-2 (stereo not drawn) | 19.6 | 24.9 µM | 23.1 µM | 31.4 µM | 26 µM | 35.1 µM | 26.9 µM | 22.6 µM | 27.7 µM | 24.2 µM |  |  |  |  |  |  |  | 
C/C(=C\CO)CC[C@@H]1[C@@]2(C)CCCC(C)(C)[C@@H]2CC[C@@]1(C)O | 30.8 | 36.3 µM | 39.8 µM | 43 µM | 30.7 µM | 32.6 µM | 40 µM | 33.7 µM | 33.7 µM | 27.1 µM |  |  |  |  |  |  |  | 
O=C(O[C@@H](/C=C/c1ccccc1)P1(=O)N(Cc2ccccc2)[C@@H]2CCCC[C@H]2N1Cc1ccccc1)c1ccccc1 | > 100 | > 100 µM | > 100 µM | 15.5 µM | > 100 µM | > 100 µM | 9.22 µM | > 100 µM | > 100 µM | > 100 µM |  |  |  |  |  |  |  | 
C[C@@](Br)(C(=O)O)[C@H](Br)C(=O)O | > 100 | > 100 µM | > 100 µM | > 100 µM | > 100 µM | > 100 µM | > 100 µM | > 100 µM | > 100 µM | > 100 µM |  |  |  |  |  |  |  | 
Cc1nn(C(=O)c2ccccc2O)c2c1C(c1ccc([N+](=O)[O-])cc1)SC(N)=N2 (stereo not drawn) | > 10 | > 10 µM | > 10 µM | > 10 µM | > 10 µM | > 10 µM | > 10 µM | > 10 µM | > 10 µM | > 10 µM |  |  |  |  |  |  |  | 
CC(=O)Nc1ccc2c(c1)nc1c3ccccc3ccn21 | > 100 | > 100 µM | > 100 µM | > 100 µM | > 100 µM | > 100 µM | > 100 µM | > 100 µM | > 100 µM | > 100 µM |  |  |  |  |  |  |  | 
CC(C)(C)C#CI1OC(=O)c2ccccc21 | 15.4 | 9.24 µM | 11.5 µM | 18.4 µM | 24 µM | 11.7 µM | 15.3 µM | 28.2 µM | 11.6 µM | 13.8 µM |  |  |  |  |  |  |  | 
COC(=O)c1ccc2cc(O)ccc2c1 | > 100 | > 100 µM | > 100 µM | > 100 µM | > 100 µM | > 100 µM | > 100 µM | > 100 µM | > 100 µM | > 100 µM |  |  |  |  |  |  |  | 

SMILES | TGI (MCF7 breast) [µM] | TGI (MALME-3M melanoma) | TGI (786-0 renal) | TGI (KM12 colon) | TGI (A498 renal) | TGI (BT-549 breast) | TGI (NCI-H23 lung) | TGI (SF-295 CNS) | TGI (HCT-15 colon) | TGI (UACC-62 melanoma) | GI50 (MCF7 breast) [µM] | GI50 (MALME-3M melanoma) [µM] | GI50 (KM12 colon) [µM] | GI50 (A498 renal) [µM] | GI50 (NCI-H23 lung) [µM] | GI50 (SF-295 CNS) [µM] | GI50 (HCT-15 colon) [µM] | GI50 (UACC-62 melanoma) [µM]
Cn1c2ccccc2c2c3c(=O)[nH][nH]c(=O)c3c3c4ccccc4n(C)c3c21 | > 100 | > 100 µM | > 100 µM | > 100 µM | > 100 µM | > 100 µM | > 100 µM | > 100 µM | > 100 µM | > 100 µM |  |  |  |  |  |  |  | 
COc1ccc2c(c1)CCC(CN1CCN(CCOC(c3ccccc3)c3ccccc3)CC1)C2O (stereo not drawn) | 37.5 | 32.4 µM | 32.6 µM | 44.6 µM | 23.1 µM | 27.1 µM | 28.9 µM | 36 µM | 23 µM | 26.7 µM |  |  |  |  |  |  |  | 
CCC(C)C(NC(=O)C(CCCC[N+](=N)N)NC(=O)C(CCCC[N+](=N)N)NC(=O)c1ccc(OC)cc1)C(=O)NC(CCCC[N+](=N)N)C(=O)N1CCCC1C(=O)NC(CCCCN)C(=O)NC(CC(C)C)C(N)=O (stereo not drawn) | > 100 | > 100 µM | > 100 µM | > 100 µM | > 100 µM | > 100 µM | > 100 µM | > 100 µM | > 100 µM | > 100 µM |  |  |  |  |  |  |  | 
COc1ccc(C(=C2C(=O)OC(=O)C2=C(C)C)c2ccc(OC)cc2)cc1 | > 100 | > 100 µM | > 100 µM | > 100 µM | > 100 µM | > 100 µM | > 100 µM | > 100 µM | > 100 µM | > 100 µM |  |  |  |  |  |  |  | 
CC(C)(C)[Si](C)(C)OC1CCOC1(O)c1ccccn1 (stereo not drawn) | > 100 | > 100 µM | > 100 µM | > 100 µM | > 100 µM | > 100 µM | > 100 µM | > 100 µM | > 100 µM | > 100 µM |  |  |  |  |  |  |  | 
Cc1ccc(S(=O)(=O)N2CCc3cc(O)c([N+](=O)[O-])cc32)cc1 | > 100 | > 100 µM | > 100 µM | > 100 µM | > 100 µM | > 100 µM | > 100 µM | > 100 µM | > 100 µM | > 100 µM |  |  |  |  |  |  |  | 
O=C(CCl)Nc1ccc(C(=O)N/N=C/c2ccc(Cl)cc2)cc1 | 22.6 | 3.63 µM and 14.2 µM | 3.09 µM and 3.12 µM | 3.84 µM and 2.74 µM | 4.85 µM and 26.7 µM | 3.53 µM and 4.11 µM | 3.19 µM and 6.87 µM | 3.1 µM and 9.23 µM | 3.74 µM and 9.73 µM | 3.2 µM and 8.78 µM | 10 | 3.79 | 1.84 | 13 | 1.62 | 1.65 | 1.48 | 1.71
Brc1ccc(/C(N=N/C(=N\Sc2ccccc2)c2ccc(Br)cc2)=N/Sc2ccccc2)cc1 | > 100 | > 100 µM | > 100 µM | > 100 µM | > 100 µM | > 100 µM | > 100 µM | > 100 µM | > 100 µM | > 100 µM |  |  |  |  |  |  |  | 
Brc1ccc2[nH]cc(-c3csc(-c4c[nH]c5ccc(Br)cc45)n3)c2c1 | 12.9 | 3.99 µM | 3.49 µM | 2.95 µM | 6.03 µM | 18 µM | 6.34 µM | 6.32 µM | 4.5 µM | 4.09 µM |  |  |  |  |  |  |  | 
O=C(O)C12C3C4(C(=O)O)C1C1(C(=O)O)C2C3(C(=O)O)C41 (stereo not drawn) | > 100 | > 100 µM | > 100 µM | > 100 µM | > 100 µM | > 100 µM | > 100 µM | > 100 µM | > 100 µM | > 100 µM |  |  |  |  |  |  |  | 
COc1ccc2c(c1)-c1nc(=S)n(CCN(C)C)c3ccc([N+](=O)[O-])c(c13)N2 | 3.43 | 2.49 µM | 1.8 µM | 6.27 µM | 24.5 µM | 24 µM | 17.9 µM | 18.3 µM | 4.76 µM | 23.5 µM |  |  |  |  |  |  |  | 
O=C(O)CCSc1ncnc2nc[nH]c12 | > 100 | > 100 µM | > 100 µM | > 100 µM | > 100 µM | > 100 µM | > 100 µM | > 100 µM | > 100 µM | > 100 µM |  |  |  |  |  |  |  | 
O=C1CCC(CCc2nc3ccccc3[nH]2)(c2ccccc2)C(=O)N1 (stereo not drawn) | > 100 | > 100 µM | > 100 µM | > 100 µM | > 100 µM | > 100 µM | > 100 µM | > 100 µM | > 100 µM | > 100 µM |  |  |  |  |  |  |  | 
Cc1nc2ccccc2n1Cc1ccc(NC(=S)Nc2ccccc2)cc1 | > 100 | > 100 µM | > 100 µM | > 100 µM | > 100 µM | > 100 µM | > 100 µM | > 100 µM | > 100 µM | > 100 µM |  |  |  |  |  |  |  | 
O=C1c2cccnc2C(=O)c2c1nc1ccccc1c2-c1ccc2c3c(nc4ccccc42)C(=O)c2cccnc2-c13 | 8.05 | 4.54 µM | 1.91 µM | 12.5 µM | 6.05 µM | 12.7 µM | 2.67 µM | 7.68 µM | 1.76 µM | 5.1 µM |  |  |  |  |  |  |  | 
CN(C)CN1C(=O)/C(=N\n2c(-c3ccncc3)n[nH]c2=S)c2ccccc21 | > 100 | > 100 µM | 41.6 µM | > 100 µM | > 100 µM | > 100 µM | > 100 µM | > 100 µM | > 100 µM | > 100 µM |  |  |  |  |  |  |  | 
